# Active and inactive are the calls of the source.
# Experiments:
# [1] = viability loss in THP-1 monocytes – THP-1 cells, cytotoxicity control for Vif-APOBEC3G degradation inhibitor project, dose response (AID 1117359); type: functional; details: THP-1
# [2] = HIV-1 Vif–A3G interaction blockers – biochemical, TR-FRET, GST-Vif 1-94, biotin-A3G peptide, dose response retest, primary screen (AID 1117319); type: functional;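 further: TR-FRET signal of purified GST-Vif binding a biotinylated A3G peptide; inhibitors lower the FRET signal by blocking Vif and A3G binding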
# [3] = target: T1, Replicative DNA helicase DnaB (Mycobacterium tuberculosis, UniProt P9WMR3); experiment: DnaB intein splicing inhibitors, dose response, biochemical, cell-free fluorescence (AID 449749); type: functional
# T1 sequence (P9WMR3 whole entry): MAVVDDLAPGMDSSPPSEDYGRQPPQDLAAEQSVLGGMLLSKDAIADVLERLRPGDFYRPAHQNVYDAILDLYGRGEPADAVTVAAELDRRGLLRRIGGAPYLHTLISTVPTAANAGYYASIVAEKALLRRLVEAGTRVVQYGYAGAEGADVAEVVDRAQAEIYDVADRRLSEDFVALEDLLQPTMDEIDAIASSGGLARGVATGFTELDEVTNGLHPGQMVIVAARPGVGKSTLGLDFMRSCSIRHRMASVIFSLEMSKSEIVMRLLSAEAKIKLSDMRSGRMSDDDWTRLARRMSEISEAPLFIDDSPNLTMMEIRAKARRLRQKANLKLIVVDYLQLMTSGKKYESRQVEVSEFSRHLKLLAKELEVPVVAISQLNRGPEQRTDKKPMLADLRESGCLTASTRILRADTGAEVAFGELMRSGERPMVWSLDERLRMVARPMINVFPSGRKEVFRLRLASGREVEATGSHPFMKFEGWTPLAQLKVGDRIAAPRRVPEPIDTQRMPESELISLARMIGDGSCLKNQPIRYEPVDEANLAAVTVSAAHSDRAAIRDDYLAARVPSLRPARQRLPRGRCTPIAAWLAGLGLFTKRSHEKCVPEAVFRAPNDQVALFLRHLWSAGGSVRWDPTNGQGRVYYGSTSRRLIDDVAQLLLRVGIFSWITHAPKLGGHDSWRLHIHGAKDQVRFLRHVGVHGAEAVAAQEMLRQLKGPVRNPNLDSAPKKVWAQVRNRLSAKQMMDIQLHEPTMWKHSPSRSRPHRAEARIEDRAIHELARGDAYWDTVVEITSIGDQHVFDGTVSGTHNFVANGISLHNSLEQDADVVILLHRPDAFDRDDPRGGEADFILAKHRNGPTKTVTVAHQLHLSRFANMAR
# [4] = target: Nonstructural protein 1 (Influenza A virus, UniProt Q194T2); type: functional, Influenza A virus (A/California/07/2009(H1N1))
# Nonstructural protein 1, sequence (Q194T2 whole entry): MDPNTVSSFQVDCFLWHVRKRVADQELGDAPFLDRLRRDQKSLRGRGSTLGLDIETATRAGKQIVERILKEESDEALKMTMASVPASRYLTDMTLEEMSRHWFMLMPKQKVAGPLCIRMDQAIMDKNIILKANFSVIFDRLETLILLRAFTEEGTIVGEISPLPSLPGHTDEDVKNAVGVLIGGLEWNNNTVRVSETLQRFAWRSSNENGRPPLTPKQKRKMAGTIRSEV
# [5] = target: T2, Protein RecA (Mycobacterium tuberculosis, UniProt P9WHJ3); experiment: Fluorescence Cell-Free Homogeneous Dose Retest to Identify Inhibitors of RecA-Intein Splicing Activity. [Related pubchem assays (depositor defined):AID2097, AID2223, AID489010, AID492950]; type: functional
# T2 sequence (P9WHJ3 whole entry): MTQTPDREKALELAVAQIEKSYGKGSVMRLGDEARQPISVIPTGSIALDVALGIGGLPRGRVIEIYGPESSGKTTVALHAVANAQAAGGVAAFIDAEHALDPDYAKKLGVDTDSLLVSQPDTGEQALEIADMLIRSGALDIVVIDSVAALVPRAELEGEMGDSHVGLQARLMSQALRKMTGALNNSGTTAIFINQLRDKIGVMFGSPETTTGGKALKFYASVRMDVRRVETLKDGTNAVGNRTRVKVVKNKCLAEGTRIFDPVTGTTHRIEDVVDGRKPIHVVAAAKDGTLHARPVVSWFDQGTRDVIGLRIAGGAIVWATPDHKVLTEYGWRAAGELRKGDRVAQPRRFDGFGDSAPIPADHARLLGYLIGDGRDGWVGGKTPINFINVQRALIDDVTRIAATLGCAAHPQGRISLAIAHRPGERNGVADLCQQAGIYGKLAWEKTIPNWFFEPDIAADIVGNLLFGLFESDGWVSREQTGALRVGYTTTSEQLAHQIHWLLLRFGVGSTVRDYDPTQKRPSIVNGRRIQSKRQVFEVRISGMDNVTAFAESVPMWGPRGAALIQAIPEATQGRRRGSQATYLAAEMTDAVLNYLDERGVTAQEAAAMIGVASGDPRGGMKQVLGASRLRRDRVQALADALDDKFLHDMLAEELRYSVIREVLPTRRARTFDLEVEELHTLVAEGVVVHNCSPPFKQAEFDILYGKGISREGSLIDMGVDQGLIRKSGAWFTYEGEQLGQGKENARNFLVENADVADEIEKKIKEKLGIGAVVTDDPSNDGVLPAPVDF
# [6] = target: T3, Caspase-6 (Homo sapiens, UniProt P55212); experiment: inhibition of CASP6 peptide cleavage – biochemical, VEID-R110 fluorescence, cherry-pick, dose response (AID 720632)
# T3 sequence (P55212 whole entry): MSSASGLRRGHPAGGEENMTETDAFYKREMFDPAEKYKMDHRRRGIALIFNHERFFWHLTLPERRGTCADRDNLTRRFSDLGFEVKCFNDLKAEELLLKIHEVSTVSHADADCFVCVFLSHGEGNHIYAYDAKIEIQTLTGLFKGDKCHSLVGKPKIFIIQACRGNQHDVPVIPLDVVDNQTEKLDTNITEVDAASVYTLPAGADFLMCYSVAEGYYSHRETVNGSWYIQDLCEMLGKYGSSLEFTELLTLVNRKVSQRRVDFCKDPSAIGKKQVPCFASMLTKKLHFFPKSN
# [7] = viability of PTEN-deleted HCT116 cells – cell-based, HCT116 PTEN knockout, dose response (AID 1047); type: functional;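 further: HCT116 colon tumor cells with PTEN knocked out; cells exposed to compound for 60 hours before readout; potency for loss of cell viability measured by luminescence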
# [8] = viability of HCT116 lacking mutant beta-catenin – cell-based, human colon tumor, dose response (AID 1045); type: functional;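 further: HCT116 colon tumor cells with beta catenin knocked out; cells exposed to compound for 60 hours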
# [9] = reduced cellular PGC1a acetyl-lysine signal – cell-based, cherry-picked samples, dose response (AID 720514); type: functional;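 further: potency may reflect raised or lowered acetylation signal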
# [10] = viability loss in human Jurkat cells – cell-based, luminescence, cytotoxicity control for P. falciparum gametocyte viability project, dose response (AID 1117277); type: functional;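 further: potency reflects loss of cellular ATP meaning fewer viable cells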
# [11] = viability inhibitors of stage V gametocytes – luminescence, dose response (AID 1117278); type: functional, cell-based;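 further: gametocytes exposed to compound for 24 hours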
# [12] = blockers of HIV-1 envelope-mediated cell-cell fusion – cherry-pick, dose response (AID 652057); type: functional, cell-based
# [13] = HIV-1 AD8 envelope cell-cell fusion blockers – cherry-pick, dose response (AID 652062); type: functional, cell-based;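 further: luciferase signal from cell-cell fusion driven by HIV-1 clade B AD8 Env; potency is for inhibitors of fusion seen as a drop in luminescence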
# [14] = blockers of HIV-1 ZM109 envelope-driven cell-cell fusion – HeLa effector, CEM target cells, luciferase, cherry-pick, dose response (AID 652058); type: functional, cell-based;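 further: luciferase signal from HIV-1 Env mediated cell-cell fusion of effector and target cells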
# [15] = target: Heat shock protein HSP 90-alpha (Homo sapiens, UniProt P07900); experiment: Luminescence-based dose response biochemical high throughput screening assay for inhibitors of the Heat Shock Protein 90 (HSP90). [Related pubchem assays: 1831 (Summary AID.), 1846 (Confirmation screen.), 1789 (Primary screen.)]
# [16] = tested on: INS1; experiment: INS-1E survival protection against cytokine death – cell-based, luminescence, retest, dose response (AID 449756); type: functional; details: Rattus norvegicus;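 further: cell death triggered by IL-1 beta plus TNF-alpha plus IFN-gamma mixture; protective hits raise ATP signal compared with cytokine alone wells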
# [17] = target: Disintegrin and metalloproteinase domain-containing protein 17 (Homo sapiens, UniProt P78536); experiment: exosite inhibitors of ADAM17, dose response, biochemical (AID 743260)
# Disintegrin and metalloproteinase domain-containing protein 17, sequence (P78536 whole entry, the tested form may be a part): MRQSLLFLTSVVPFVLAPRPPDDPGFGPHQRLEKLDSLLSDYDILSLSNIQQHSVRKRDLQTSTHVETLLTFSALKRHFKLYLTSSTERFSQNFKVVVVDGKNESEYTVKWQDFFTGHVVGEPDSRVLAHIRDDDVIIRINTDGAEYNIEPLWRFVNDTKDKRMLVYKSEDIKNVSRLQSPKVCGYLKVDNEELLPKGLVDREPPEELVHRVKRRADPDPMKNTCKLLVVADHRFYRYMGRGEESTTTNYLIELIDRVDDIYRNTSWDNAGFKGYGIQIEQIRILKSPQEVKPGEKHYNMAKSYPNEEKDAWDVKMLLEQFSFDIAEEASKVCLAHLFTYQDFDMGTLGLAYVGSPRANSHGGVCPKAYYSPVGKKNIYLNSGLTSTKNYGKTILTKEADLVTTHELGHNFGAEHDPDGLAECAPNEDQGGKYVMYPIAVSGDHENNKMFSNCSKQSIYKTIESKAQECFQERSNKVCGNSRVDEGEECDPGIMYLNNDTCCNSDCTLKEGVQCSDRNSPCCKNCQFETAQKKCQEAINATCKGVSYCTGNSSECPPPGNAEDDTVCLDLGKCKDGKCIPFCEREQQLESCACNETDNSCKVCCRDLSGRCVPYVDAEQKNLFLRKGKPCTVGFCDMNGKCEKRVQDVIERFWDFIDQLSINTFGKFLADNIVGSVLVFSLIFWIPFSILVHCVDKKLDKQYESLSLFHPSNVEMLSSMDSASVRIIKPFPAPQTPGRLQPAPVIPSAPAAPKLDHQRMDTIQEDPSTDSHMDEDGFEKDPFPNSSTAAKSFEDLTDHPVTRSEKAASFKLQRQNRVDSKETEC
# [18] = inhibition of ADAM10 peptide cleavage – biochemical, FRET peptide substrate, recombinant human ADAM10, selectivity assay for ADAM17 exosite inhibitor project, dose response (AID 743259);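 further: ADAM10 enzyme cleaving a FRET peptide substrate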
# [19] = Luminescence Cell-Based Dose Retest to Confirm Inhibitors of Cancer Stem Cells. [Related pubchem assays (depositor defined):AID2717, AID2721]; type: functional; details: Homo sapiens
# [20] = target: T4, Heat shock factor protein 1 (Mus musculus, UniProt P38532); experiment: enhancement of HSF1-driven luciferase signal – cell-based, NIH3T3, luminescence, dose retest, confirmation (AID 435004); type: functional;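 further: stress induced by proteasome inhibitor MG132 added 30 min after compound; luciferase reporter driven by HSF1 response element in NIH3T3 cells; actives raise luminescence as potentiators of the MG132 stress response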
# T4 sequence (P38532 whole entry): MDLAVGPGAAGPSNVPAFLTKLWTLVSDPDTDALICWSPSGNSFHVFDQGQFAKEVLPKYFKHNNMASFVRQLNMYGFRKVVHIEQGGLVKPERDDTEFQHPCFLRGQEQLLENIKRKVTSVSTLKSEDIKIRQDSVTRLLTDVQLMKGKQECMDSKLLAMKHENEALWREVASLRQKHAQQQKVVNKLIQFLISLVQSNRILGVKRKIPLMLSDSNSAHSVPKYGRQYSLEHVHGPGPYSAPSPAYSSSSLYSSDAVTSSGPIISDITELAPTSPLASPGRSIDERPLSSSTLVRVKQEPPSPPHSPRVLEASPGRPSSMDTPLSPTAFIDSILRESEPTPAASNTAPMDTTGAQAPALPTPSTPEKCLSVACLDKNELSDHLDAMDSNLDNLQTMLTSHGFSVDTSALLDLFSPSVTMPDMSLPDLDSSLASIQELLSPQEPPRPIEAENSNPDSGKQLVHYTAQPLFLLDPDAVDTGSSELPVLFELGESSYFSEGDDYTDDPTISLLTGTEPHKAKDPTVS
structure (smiles),measurement,setting,value
COc1ccc(CC(=O)OCC(=O)NCc2ccco2)cc1OC,CC50,[1],> 40 µM (active)
same,IC50,[2],> 100 µM (active)
Cc1ccc(S(=O)(=O)N(CC(=O)N/N=C/c2cccc3c2OCCO3)c2ccccc2F)cc1,IC50,[2],> 100 µM (active)
Cc1ccc2c(c1)-c1c(ssc1=S)C(C)(C)N2C(=O)CSC1=NCCS1,AC50,[3],28.3 µM (active)
same,IC50,[4],24.9 µM (active)
same,EC50,[5],9.8 µM (active)
CNS(=O)(=O)c1cccc(C(=O)OCC(=O)N2c3ccccc3NC(=O)C2(C)C)c1,AC50,[6],3 µM (active)
Clc1cccc(-c2cc3nc4c(c(N5CCNCC5)n3n2)CCCC4)c1,EC50,[7],8.22 µM (active)
same,EC50,[8],7.97 µM (active)
Cc1nc(Nc2ccc(S(N)(=O)=O)cc2)sc1C(=O)Nc1ccccc1,CC50,[1],> 40 µM (active)
same,AC50,[9],3.05 µM (active)
Cc1cccc(C)c1NC1=NC(=S)N(c2ccc(C(=O)O)cc2)C12CCCCC2,IC50,[10],> 83.3 µM (inactive)
same,IC50,[11],> 109 µM (inactive)
COc1ccccc1NC(=O)N[C@@H]1C=C[C@H](CC(=O)N[C@H](C)c2ccccc2)O[C@H]1CO,AC50,[12],8.31 µM (active)
same,AC50,[13],6.98 µM (active)
same,AC50,[14],7.16 µM (active)
CC1=NN(c2ccccc2)C(=O)/C1=C\N(O)c1ccccc1,IC50,[15],2.78 µM (active)
O=C(O)c1ccc(COc2c(F)c(F)c(F)c(F)c2F)o1,IC50,[2],> 100 µM (active)
Cc1ccc(-c2csc3ncn(CC(=O)N4CCOCC4)c(=O)c23)cc1,IC50,[10],> 83.3 µM (inactive)
same,IC50,[11],> 109 µM (inactive)
CC(=O)CSc1ccc(-c2nc3ccccc3[nH]2)cn1,IC50,[15],8.09 µM (active)
same,AC50,[16],5.24 µM (active)
O=S(=O)(Nc1ccncc1)c1ccccc1,IC50,[10],> 83.3 µM (inactive)
same,IC50,[11],> 109 µM (inactive)
O=C(Nc1cccc(-c2csc(-c3ccccc3)n2)c1)c1cccs1,IC50,[17],> 69.5 µM (inactive)
same,IC50,[18],> 69.5 µM (inactive)
same,AC50,[19],3.38 µM (active)
COc1ccc(/C=C/c2noc(-c3ccccc3OC(C)=O)n2)cc1,IC50,[15],3.29 µM (active)
Cc1cc(C)n(-c2ccc(C(=O)NCc3cccs3)cc2)n1,IC50,[10],> 83.3 µM (inactive)
same,IC50,[11],> 109 µM (inactive)
O=C(CCN1CCOCC1)NCC(=O)Nc1ccc(Br)cc1C(=O)c1ccccc1,IC50,[2],> 100 µM (active)
Cc1ccc2c(c1)[C@H]1[C@H](CO2)[C@H](c2ccccc2)[C@]2(C)C(=O)N(Cc3ccc(Cl)cc3)CC(=O)N12,IC50,[17],> 69.5 µM (inactive)
same,IC50,[18],> 69.5 µM (inactive)
CC1(O)N(Cc2ccccc2)C(=O)OC12CCCCC2 (stereo not given),IC50,[17],> 69.5 µM (inactive)
same,IC50,[18],> 69.5 µM (inactive)
CN(CCc1ccccc1)C(=O)c1ccc(NC(=O)Cc2ccc(NC(=O)C3CCN(C(=O)CCc4ccccc4)CC3)cc2)cc1,CC50,[1],> 40 µM (active)
Nc1cc(OC(=O)c2c(F)cccc2Cl)nn1S(=O)(=O)c1ccccc1,IC50,[17],> 69.5 µM (inactive)
same,IC50,[18],> 69.5 µM (inactive)
O=C(C[C@@H]1CC[C@H]2[C@@H](COC[C@@H](O)CN2Cc2ccc(Oc3ccccc3)cc2)O1)N1CCN(c2ccccc2)CC1,AC50,[12],22.3 µM (active)
same,AC50,[13],4.07 µM (active)
same,AC50,[14],20.4 µM (active)
CCOc1ccc(CNc2ccc(N3CCN(Cc4ccccc4)CC3)cc2)cc1,IC50,[4],49.6 µM (active)
same,EC50,[20],> 260 µM (inactive)
COc1ccc(S(=O)(=O)NCC(c2ccco2)N2CCc3ccccc32)cc1 (stereo not given),IC50,[17],> 69.5 µM (inactive)
same,IC50,[18],38.4 µM (inactive)
CCc1ccc(-c2nc(CN3CCC(C(=O)NCCN(CC)c4ccccc4)CC3)c(C)o2)cc1,EC50,[7],7.82 µM (active)
same,EC50,[8],6.8 µM (active)
Brc1ccc2nc(N3CCN(c4ccccc4)CC3)sc2c1,IC50,[10],> 83.2 µM (inactive)
same,IC50,[11],> 109 µM (inactive)
CCC(C)c1ccc(OCc2ccc(C(=O)OC)o2)cc1 (stereo not given),IC50,[15],2.29 µM (active)

# Source: ChEMBL document CHEMBL1201862, “PubChem BioAssay data set” (2004)
